Data reported in US11370784B2 (MISSION THERAPEUTICS LIMITED, priority 2016, dated 2022).

The compounds below were run against USP30 (Homo sapiens (Human), UniProt Q70CQ3) (assay: USP30 biochemical IC50 assay). Conditions: fluorescence polarisation, TAMRA labelled peptide linked to ubiquitin as substrate; enzyme and compound incubated 30 min at room temp; read-out: IC50 range.
Chain of USP30 (Q70CQ3 57-517): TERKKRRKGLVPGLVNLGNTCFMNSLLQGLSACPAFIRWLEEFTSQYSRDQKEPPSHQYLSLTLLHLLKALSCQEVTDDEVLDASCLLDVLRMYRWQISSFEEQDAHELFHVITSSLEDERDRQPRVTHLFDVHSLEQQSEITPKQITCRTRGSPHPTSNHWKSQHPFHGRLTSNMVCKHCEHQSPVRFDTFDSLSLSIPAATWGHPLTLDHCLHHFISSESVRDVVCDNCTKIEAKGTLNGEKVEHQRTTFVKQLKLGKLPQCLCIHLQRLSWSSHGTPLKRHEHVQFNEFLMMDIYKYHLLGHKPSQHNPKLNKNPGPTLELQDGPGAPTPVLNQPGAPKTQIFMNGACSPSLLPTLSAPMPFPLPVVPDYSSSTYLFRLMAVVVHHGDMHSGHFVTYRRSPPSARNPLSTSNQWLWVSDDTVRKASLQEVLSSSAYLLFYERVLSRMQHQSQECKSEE
Method: Reactions were performed in duplicate in black 384 well plates (small volume, Greiner 784076) in a final reaction volume of 21 μl. Either 1 μl of 50% DMSO or diluted compound was added to the plate. USP30 was diluted in reaction buffer (40 mM Tris, pH 7.5, 0.005% Tween 20, 0.5 mg/ml BSA, 5 mM beta-mercaptoethanol) to the equivalent of 0.05 μl/well and 10 μl of diluted USP30 was added to the compound. Enzyme and compound were incubated for 30 min at room temp. Reactions were initiated by the addition of 50 nM of TAMRA labelled peptide linked to ubiquitin via an iso-peptide bond as fluorescence polarisation substrate. Reactions were read immediately after addition of substrate and following a 2 h incubation at room temperature. Readings were performed on a Pherastar Plus (BMG Labtech). λ Excitation 540 nm; λ Emission 590 nm.
Work on N#Cc1cccc(-n2cc(NC(=O)[C@@]3(F)CCCN(C#N)C3)nn2)c1 [Example 82, (R)-1-Cyano-N-(1-(3-cyanophenyl)-1H-1,2,3-triazol-4-yl)-3-fluoropiperidine-3-carboxamide] yielded an IC50 of 100 to 1000 nM. N#CN1CCOC(C(=O)Nc2ccc(-c3ccccc3)cn2)C1 (stereo not shown) [Example 12, 4-Cyano-N-(5-phenylpyridin-2-yl)morpholine-2-carboxamide] gave an IC50 of 1000 to 10000 nM. N#CN1CCC[C@](F)(C(=O)Nc2cc(-c3cccc(Cl)c3)on2)C1 [Example 74, (R)—N-(5-(3-Chlorophenyl)isoxazol-3-yl)-1-cyano-3-fluoropiperidine-3-carboxamide] was tested, and the IC50 was < 100 nM. With N#CN1CCCC(C(=O)Nc2cc(-c3ccccc3)ccn2)C1 (stereo not shown) [Example 40, 1-Cyano-N-(4-phenylpyridin-2-yl)piperidine-3-carboxamide] the IC50 was 1000 to 10000 nM. With N#CN1CC(C(=O)Nc2nc3ccc(-c4cn[nH]c4)cc3s2)CC(F)(F)C1 (stereo not shown) [Example 59, N-(6-(1H-Pyrazol-4-yl)benzo[d]thiazol-2-yl)-1-cyano-5,5-difluoropiperidine-3-carboxamide] the IC50 was 1000 to 10000 nM. CN1CCN(C#N)C[C@@H]1C(=O)Nc1ncc(-c2ccccc2)s1 [Example 68] gave an IC50 of 1000 to 10000 nM. COc1cccc(-c2cc(NC(=O)[C@H]3CN(C#N)CCO3)ncn2)c1 [Example 22, (R)-4-Cyano-N-(6-(3-methoxy-phenyl)pyrimidin-4-yl)morpholine-2-carboxamide] gave an IC50 of 1000 to 10000 nM. N#CN1CCO[C@@H](C(=O)Nc2cnc(-c3ccccc3)s2)C1 [Example 28, (R)-4-Cyano-N-(2-phenylthiazol-5-yl)morpholine-2-carboxamide] gave an IC50 of 1000 to 10000 nM. N#CN1CCO[C@@H](C(=O)Nc2cc(-c3ccc(Cl)cc3)ncn2)C1 [Example 26, (R)-N-(6-(4-Chlorophenyl)-pyrimidin-4-yl)-4-cyanomorpholine-2-carboxamide] was tested, and the IC50 was 100 to 1000 nM. Compound N#Cc1cccc(-c2ccnc(NC(=O)[C@@]3(F)CCCN(C#N)C3)c2)c1 [Example 52, (R)-1-Cyano-N-(4-(3-cyanophenyl)pyridin-2-yl)-3-fluoropiperidine-3-carboxamide] has an IC50 of 100 to 1000 nM. N#Cc1cccc(-n2cnc(NC(=O)[C@@]3(F)CCCN(C#N)C3)c2)c1 [Example 79, (R)-1-Cyano-N-(1-(3-cyanophenyl)-1H-imidazol-4-yl)-3-fluoropiperidine-3-carboxamide] was tested, and the IC50 was 100 to 1000 nM. CC(C)Oc1cccc(-c2cc(NC(=O)[C@H]3CN(C#N)CCO3)ncn2)c1 [Example 23, (R)-4-Cyano-N-(6-(3-isopropoxy-phenyl)pyrimidin-4-yl)morpholine-2-carboxamide] showed an IC50 of 1000 to 10000 nM. With N#CN1CCCC(F)(C(=O)Nc2cn(-c3ccccc3)cn2)C1 (stereo not shown) [Example 43, 1-Cyano-3-fluoro-N-(1-phenyl-1H-imidazol-4-yl)piperidine-3-carboxamide] the IC50 was 100 to 1000 nM. N#Cc1ccc2cnc(NC(=O)[C@H]3CN(C#N)CCO3)cc2c1 [Example 65, (R)-4-Cyano-N-(6-cyanoisoquinolin-3-yl)morpholine-2-carboxamide] gave an IC50 of 1000 to 10000 nM. N#CN1CCCC(F)(C(=O)Nc2ncc(-c3ccccc3)s2)C1 (stereo not shown) [Example 42, 1-Cyano-3-fluoro-N-(5-phenylthiazol-2-yl)piperidine-3-carboxamide] gave an IC50 of 100 to 1000 nM. In the case of N#CN1CCC[C@](F)(C(=O)Nc2ccc(-c3cccc4cn[nH]c34)cn2)C1 [Example 84, (R)—N-(5-(1H-Indazol-7-yl)pyridin-2-yl)-1-cyano-3-fluoropiperidine-3-carboxamide], the IC50 is reported as < 100 nM. For N#CN1CCC[C@](F)(C(=O)Nc2ccc(-n3cccn3)cn2)C1 [Example 77, (R)—N-(5-(1H-Pyrazol-1-yl)pyridin-2-yl)-1-cyano-3-fluoropiperidine-3-carboxamide], the IC50 was 100 to 1000 nM. N#CN1CCCC(C(=O)Nc2cc(-c3ccccc3)no2)C1 (stereo not shown) [Example 41, 1-Cyano-N-(3-phenylisoxazol-5-yl)piperidine-3-carboxamide] showed an IC50 of 1000 to 10000 nM. In the case of N#CN1CCO[C@@H](C(=O)Nc2cc(-c3cccc(Cl)c3)ncn2)C1 [Example 21, (R)-N-(6-(3-Chlorophenyl)-pyrimidin-4-yl)-4-cyanomorpholine-2-carboxamide], the IC50 is reported as 100 to 1000 nM.
